Columns and labels:
SK-MEL-5 = assay: Growth inhibition of human SK-MEL-5 cells after 48 hrs by SRB assay; type: functional; conditions: SK-MEL-5, 48 h
[1] = Growth inhibition of human SNB75 cells after 48 hrs by SRB assay; type: functional; conditions: SNB-75, 48 h
[2] = Growth inhibition of human Hs 578T cells at 10 uM after 48 hrs by SRB assay; type: functional; conditions: read-out: GI
SK-MEL-2 = assay: Growth inhibition of human SK-MEL-2 cells after 48 hrs by SRB assay; type: functional; conditions: SK-MEL-2, 48 h
NCI-H522 [3] = assay: Growth inhibition of human NCI-H522 cells after 48 hrs by SRB assay; type: functional; conditions: NCI-H522, 48 h
NCI-H460 = assay: Growth inhibition of human NCI-H460 cells after 48 hrs by SRB assay; type: functional; conditions: NCI-H460, 48 h
[4] = Growth inhibition of human LOXIMVI cells after 48 hrs by SRB assay; type: functional; conditions: LOX IMVI
[5] = Growth inhibition of human HCT116 cells after 48 hrs by SRB assay; type: functional; conditions: HCT-116, 48 h
[6] = Growth inhibition of human BT549 cells at 10 uM after 48 hrs by SRB assay; type: functional; conditions: BT-549, 48 h, read-out: GI
[7] = biological target: Cyclin-dependent kinase 2 (Homo sapiens) (UniProt P24941); assay: Inhibition of CDK-2 (unknown origin) at 10 uM
NCI-H226 = assay: Growth inhibition of human NCI-H226 cells at 10 uM after 48 hrs by SRB assay; type: functional; conditions: NCI-H226, 48 h, read-out: GI
HT-29 = assay: Growth inhibition of human HT-29 cells at 10 uM after 48 hrs by SRB assay; type: functional; conditions: HT-29, 48 h, read-out: GI
[8] = Growth inhibition of human TK10 cells at 10 uM after 48 hrs by SRB assay; type: functional; conditions: TK-10, 48 h, read-out: GI
CCRF-CEM = assay: Growth inhibition of human CCRF-CEM cells after 48 hrs by SRB assay; type: functional
[9] = Growth inhibition of human BT549 cells after 48 hrs by SRB assay; type: functional; conditions: BT-549, 48 h
NCI-H23 = assay: Growth inhibition of human NCI-H23 cells after 48 hrs by SRB assay; type: functional; conditions: NCI-H23, 48 h
KM12 = assay: Growth inhibition of human KM12 cells after 48 hrs by SRB assay; type: functional; conditions: KM12, 48 h
[10] = Growth inhibition of human SKOV3 cells at 10 uM after 48 hrs by SRB assay; type: functional; conditions: SK-OV-3, 48 h, read-out: GI
U-251 = assay: Growth inhibition of human U251 cells at 10 uM after 48 hrs by SRB assay; type: functional; conditions: U-251, 48 h, read-out: GI
[11] = Growth inhibition of human LOXIMVI cells at 10 uM after 48 hrs by SRB assay; type: functional; conditions: LOX IMVI, read-out: GI
[12] = Growth inhibition of human UACC257 cells after 48 hrs by SRB assay; type: functional; conditions: UACC-257, 48 h
[13] = Growth inhibition of human OVCAR4 cells after 48 hrs by SRB assay; type: functional; conditions: OVCAR-4, 48 h
[14] = Growth inhibition of human RPMI8226 cells after 48 hrs by SRB assay; type: functional; conditions: RPMI-8226, 48 h
[15] = Growth inhibition of human DU145 cells after 48 hrs by SRB assay; type: functional; conditions: DU-145, 48 h
[16] = Growth inhibition of human SW620 cells at 10 uM after 48 hrs by SRB assay; type: functional; conditions: SW-620, 48 h, read-out: GI
[17] = Growth inhibition of human HCT15 cells after 48 hrs by SRB assay; type: functional; conditions: HCT-15, 48 h
[18] = Growth inhibition of human Hs 578T cells after 48 hrs by SRB assay; type: functional
[19] = Growth inhibition of human MOLT4 cells after 48 hrs by SRB assay; type: functional; conditions: MOLT-4, 48 h
[20] = Growth inhibition of human HCT116 cells at 10 uM after 48 hrs by SRB assay; type: functional; conditions: HCT-116, 48 h, read-out: GI
[21] = Growth inhibition of human HOP92 cells at 10 uM after 48 hrs by SRB assay; type: functional; conditions: HOP-92, 48 h, read-out: GI
NCI-H522 [22] = assay: Growth inhibition of human NCI-H522 cells at 10 uM after 48 hrs by SRB assay; type: functional; conditions: NCI-H522, 48 h, read-out: GI
[23] = Growth inhibition of human SW620 cells after 48 hrs by SRB assay; type: functional; conditions: SW-620, 48 h
T47D = assay: Growth inhibition of human T47D cells after 48 hrs by SRB assay; type: functional
[24] = Growth inhibition of human OVCAR3 cells at 10 uM after 48 hrs by SRB assay; type: functional; conditions: OVCAR-3, 48 h, read-out: GI
[25] = Growth inhibition of human COLO205 cells at 10 uM after 48 hrs by SRB assay; type: functional; conditions: COLO 205, 48 h, read-out: GI
[26] = Growth inhibition of human SF295 cells at 10 uM after 48 hrs by SRB assay; type: functional; conditions: SF-295, 48 h, read-out: GI
[27] = Growth inhibition of human SF268 cells at 10 uM after 48 hrs by SRB assay; type: functional; conditions: SF-268, 48 h, read-out: GI
[28] = Growth inhibition of human OVCAR5 cells at 10 uM after 48 hrs by SRB assay; type: functional; conditions: OVCAR-5, 48 h, read-out: GI
[29] = read-out: LC50 (the source's name)

`COc1ccc(Nc2nccc(Nc3ccc4[nH]ncc4c3)n2)cc1` showed a GI50 (SK-MEL-5) of 2.01 µM, a TGI (SK-MEL-5) of 4.75 µM and a CC50 (SK-MEL-5; [29]) of 13.1 µM. For the same compound, the GI50 [1] was 4.58 µM, the LC50 [1] was 51.7 µM and the TGI [1] was 20.3 µM. It also gave an inhibition of growth at 10 µM [2] of 53%, a GI50 (SK-MEL-2) of 2.4 µM and an LC50 (SK-MEL-2) of 29.8 µM. It also gave a TGI (SK-MEL-2) of 6.39 µM, a GI50 (NCI-H522 [3]) of 1.86 µM and an LC50 (NCI-H522 [3]) of 15.6 µM. It also gave a TGI (NCI-H522 [3]) of 4.77 µM, a GI50 (NCI-H460) of 2.7 µM and an LC50 (50% lethal concentration) (NCI-H460) of over 100 µM. For the same compound, the TGI (NCI-H460) was 38.2 µM, the GI50 [4] was 1.92 µM and the LC50 [4] was 7.8 µM. It also gave a TGI [4] of 3.87 µM, a GI50 [5] of 2.06 µM and a TGI [5] of 4.91 µM. For the same compound, the CC50 [5, 29] was 73.1 µM, the inhibition of growth at 10 µM [6] was 56% and the inhibition [7] was 71%. The inhibition of growth at 10 µM (NCI-H226) was 72%, the inhibition of growth at 10 µM (HT-29) was 88% and the inhibition of growth at 10 µM [8] was 81%. It also gave a GI50 (CCRF-CEM) of 2.61 µM, an LC50 (concentration for 50% net cell kill) (CCRF-CEM) of over 100 µM and a TGI (CCRF-CEM) of 4.67 µM. The GI50 [9] was 3.22 µM, the TGI [9] was 12.1 µM and the CC50 [9, 29] was 34.8 µM. The GI50 (NCI-H23) was 2.35 µM, the TGI (NCI-H23) was 6.27 µM and the CC50 (NCI-H23; [29]) was 87.3 µM. The GI50 (KM12) was 3.45 µM, the TGI (KM12) was 24.2 µM and the CC50 (KM12; [29]) was over 100 µM. It also gave an inhibition of growth at 10 µM [10] of 48%, an inhibition of growth at 10 µM (U-251) of 64% and an inhibition of growth at 10 µM [11] of 81%. It also gave a GI50 [12] of 5.41 µM, a TGI [12] of 16.9 µM and a CC50 [12, 29] of 41.1 µM. For the same compound, the GI50 [13] was 2.99 µM, the TGI [13] was 11.8 µM and the CC50 [13, 29] was 55.6 µM. The GI50 [14] was 1.99 µM, the LC50 [14] was over 100 µM and the TGI [14] was 4.67 µM. For the same compound, the GI50 [15] was 3.31 µM, the LC50 [15] was 41.7 µM and the TGI [15] was 12.9 µM. It also gave an inhibition of growth at 10 µM [16] of 75%, a GI50 [17] of 1.9 µM and an LC50 [17] of 9.61 µM. The TGI [17] was 4.28 µM, the GI50 [18] was 5.02 µM and the TGI [18] was over 100 µM. The CC50 [18, 29] was over 100 µM, the GI50 [19] was 1.55 µM and the LC50 [19] was over 100 µM. It also gave a TGI [19] of 4.67 µM, an inhibition of growth at 10 µM [20] of 81% and an inhibition of growth at 10 µM [21] of 101%. It also gave an inhibition of growth at 10 µM (NCI-H522 [22]) of 81%, a GI50 [23] of 3.31 µM and a TGI [23] of over 100 µM. For the same compound, the CC50 [23, 29] was over 100 µM, the GI50 (T47D) was 1.77 µM and the LC50 (concentration killing 50% of cells) (T47D) was 97.8 µM. It also gave a TGI (T47D) of 5.24 µM, an inhibition of growth at 10 µM [24] of 51% and an inhibition of growth at 10 µM [25] of 74%. It also gave an inhibition of growth at 10 µM [26] of 52%, an inhibition of growth at 10 µM [27] of 53% and an inhibition of growth at 10 µM [28] of 48%.
